Source: patent US11465989B2, “Guanidine compounds and use thereof” (IMMUNOMET THERAPEUTICS INC., priority 2014, dated 2022)
Structures can show the parent of a compound that is named as a salt.

Key:
H1975 cell = assay: In vitro combination study with Dasatinib on H1975 cell; assay type: cell-based; settings: 0.2 μM of Dasatinib, 8 μM or 40 μM of Example 1, 40 μM or 200 μM of Example 104
Description: (§1) A549, H1975 (CRL5908, ATCC) or U937 cell (CRL1593.2™, ATCC) lines were cultured in RPMI 1640 media (Lifetechnologies, CA) with supplement of 10% FBS and antibiotic-antimycotic (Lifetechnologies, CA). Dasatinib (Combi-Blocks, San Diego, Calif.) is Bcr-Abl-tyrosine kinase inhibitor and Src family tyrosine kinase inhibitor approved for CML treatment. GDC094 (Selleckchem, Houston, Tex.) is a pan-PI3K inhibitor and effective in various cancer cells. H1975 or A549 cells were dissociated from culture plate using 0.5% trypsin-EDTA (Lifetechnologies, CA) and were suspended. U937 cells were spun down using centrifugation. […]
(§2) Among four concentrations of the compounds of present invention, the highest concentration was set to IC80 and the lowest concentration was approximately IC30. […] 100 μl of DMSO was added after removing MTT solution from each well, and were read by VICTOR X3 Multilabel Counter at the wavelength of 550 nm.
(§3) For the analysis of U937 cell viability, 20 μl of Celltiter96® AQueous one solution (MTS, Promega, Madison, Wis.) were added to each well, and plates were incubated at 37° C. and 5% CO2. After 2 hours later, plates read by VICTOR X3 Multilabel Counter at the wavelength of 490 nm. The combination index (CI value) was calculated using Calcusyn (Biosoft, UK).

SK-MEL-28 cells = assay: Cytotoxicity in low glucose condition (MTT); assay type: cell-based; settings: Homo sapiens, SK-MEL-28, 0.75 mM glucose, 72 hours, read-out: SK-MEL-28 0.75 mM glucose Cell viability (IC50 ia)
A549 cell = assay: In vitro combination study with GDC0941 on A549 cell; assay type: cell-based
Description: as §1, §2, §3

SK-MEL-239 tumor cells = assay: In vivo xenograft model using SK-MEL-239 cell; set-up: species or system mice
Description: The compounds of the present invention were evaluated in vivo using xenograft human cancer model in mice. The compounds of invention were administrated orally or interperitoneal injection. Tumor cell lines were cultured in vitro as monolayer culture. Using female BALB/c nude mice with immune system compromised, each mouse was inoculated subcutaneously at the right flank with tumor cells for tumor development. The treatment was started when the tumor size reaches approximately 100 mm^3
The SK-MEL-239 tumor cell line was maintained in vitro as monolayer in RPMII 640 medium supplemented with 10% heat inactivated fetal bovine serum, 100 U/ml penicillin and 100 μg/ml streptomycin, and L-glutamine (2 mM) at 37° C. in an atmosphere of 5% CO2 in air. The tumor cells were routinely subcultured twice weekly with 0.5% trypsin-EDTA treatment. The cells growing in an exponential growth phase were harvested and counted for tumor cell inoculation.
Female BALB/c nude mice aged 6-8 weeks and weighing approximately 18-22 g were purchased from Vital River. Each mouse was inoculated subcutaneously at the right flank with SK-MEL-239 tumor cells (1×10^7) in 0.1 ml of PBS for tumor development. The treatment was started, when the tumor size reaches approximately 100 mm^3. 100 mg/kg of Phenformin and 15 mg/kg of Vemurafenib were administered via oral gavage twice daily and 100 mg/kg HLPOI (HL176001001) was administered once daily for 21 days. Tumor volumes were measured twice a week in two dimensions using a caliper, and the volume was expressed in mm^3 using the formula: V=0.5×a×b^2, where a and b were the long and short diameters of the tumor, respectively. The T/C value (in percentage) was an indication of antitumor effect. T and C were the mean volumes of the treated and control groups, respectively.

U937 cell = assay: In vitro combination study with GDC0941 on U937 cell; assay type: cell-based
Description: as §1, §2, §3

A549 cells = assay: In vitro combination study with Dasatinib on A549 cell; assay type: cell-based; settings: in combination with 0.05 μM of Dasatinib, 72-hour treatment
Description: as §1, §2, §3

[1] = Dosing 100 mg/kg, once daily, Day 28

`N=C(N)NC(=N)NCCc1ccc(Cl)c(Cl)c1` [Example 1, N-1-(3,4-dichloro)phenethylbiguanide hydrochloride] was tested, and the “combination therapy effect with Dasatinib” value (H1975 cell) was “low combination therapy effect”, the IC50 (SK-MEL-28 cells) was 5 to 10 µM and the “CI value (combination index)” value (A549 cell) was “lower than 1”. For the same molecule, the “tumor volume compared to the control group” value (SK-MEL-239 tumor cells; 100 mg/kg, Phenformin twice daily, Example 1 once daily) was “significant reduction of tumor volume”, the “T/C (Day 28, %)” value (SK-MEL-239 tumor cells; [1]) was 65.4% and the “Tumor Volume (Day 28, mm^3, a)” value (SK-MEL-239 tumor cells; [1]) was 1,869 ± 82 mm^3. For the same molecule, the “tumor volume compared to the single administration of Vemurafenib” value (SK-MEL-239 tumor cells; in combination with 15 mg/kg of Vemurafenib) was “reduced the tumor volume”, the “CI value (combination index)” value (U937 cell) was “lower than 1” and the “CI value (combination index)” value (A549 cells) was 0.289.
